Results: publication PMC11306511, “Combining VPS34 inhibitors with STING agonists enhances type I interferon signaling and anti‐tumor efficacy” (Molecular Oncology, 2024)
Values after ≈ are worked out from the molar mass of the structure shown. Read-outs that look alike come from different tables or passages of the source.

Columns and labels:
VPS34 [1] = biological target: T1, VPS34 (Homo sapiens, UniProt Q8NEB9); assay: biochemical
Method: (§1) Compound dilution series was prepared in DMSO and further diluted to 4× final assay concentration in assay buffer (Buffer Q #PV5125, Thermo Fisher, supplemented with 2 mM DTT and 2 mM MnCl2). 2.5 μL of the diluted compounds were added to a 384‐well assay plate followed by 2.5 μL of 16.5 nM VPS34 enzyme (#PV5126; Thermo Fisher) and incubated for 15 min. Five microliters of substrate mix (20 μM ATP #PV3227 and 200 μM PI : PS substrate #PV5122; Thermo Fisher) in assay buffer was added, mixed, and incubated for 1 h. Five microliters of stop‐detection mix (Adapta kinase assay #PV5099; Thermo Fisher) were added, mixed, and incubated for 30 min and read with Artemis microplate reader. Percent remaining activity as compared to DMSO‐treated control samples was calculated and IC50 values were generated using […] PRISM (GraphPad Software, Inc., San Diego, CA, USA). The NanoBRET assay was performed using the manufacturer's protocol. Briefly, 293T cells were transfected with the Kinase‐NanoLuc® Fusion Vector DNA overnight. The next day cells were treated with compound and the NanoBRET tracer reagent and then read out measuring donor and acceptor emission wavelength (450 and 610 nm).

VPS34 [2] = biological target: T1, VPS34; assay: cell-based
Method: as §1

[3] = Solubility (PBS, FaSSIF, SGF); assay type: physicochemical
Method: (§2) Experiments were conducted at Aragen Life Sciences Ltd. (Hyderabad, India) according to internal standard procedures.

pKa = assay type: physicochemical; details: read-out: pKa (weakly basic)
Method: as §2

Shake flask LogD = assay type: physicochemical
Method: as §2

[4] = CaCo2 monolayer permeability assay; assay type: in vitro ADME; details: human, Caco-2
Method: as §2

CYP3A4 = CYP3A4 (Homo sapiens, UniProt P08684); assay: CYP inhibition; assay type: in vitro ADME
Method: as §2

PXR = biological target: T2, PXR (Homo sapiens, UniProt O75469); assay: CYP3A4 induction, PXR; assay type: in vitro ADME
T2 sequence (O75469 1-434): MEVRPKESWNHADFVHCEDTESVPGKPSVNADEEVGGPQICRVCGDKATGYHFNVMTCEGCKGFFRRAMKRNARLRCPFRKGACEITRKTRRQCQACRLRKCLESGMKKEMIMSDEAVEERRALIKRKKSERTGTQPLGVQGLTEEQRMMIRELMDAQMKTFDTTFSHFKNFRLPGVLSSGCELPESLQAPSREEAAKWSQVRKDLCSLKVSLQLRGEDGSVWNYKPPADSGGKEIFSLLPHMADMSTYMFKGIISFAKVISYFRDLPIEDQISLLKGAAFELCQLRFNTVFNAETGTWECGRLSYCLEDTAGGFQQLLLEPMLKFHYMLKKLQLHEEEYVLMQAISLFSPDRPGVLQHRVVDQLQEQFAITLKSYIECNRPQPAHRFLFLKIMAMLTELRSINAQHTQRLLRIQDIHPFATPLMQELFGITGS
Method: as §2

[5] = Plasma protein binding, mouse; assay type: in vitro ADME; details: unbound/free fraction, read-out: PPB (% unbound) mouse
Method: as §2

[6] = Plasma protein binding, human; assay type: in vitro ADME; details: unbound/free fraction, read-out: PPB (% unbound) human
Method: as §2

In vivo mouse PK = details: in vivo mouse PK
Method: as §2

T1 sequence (Q8NEB9 whole entry): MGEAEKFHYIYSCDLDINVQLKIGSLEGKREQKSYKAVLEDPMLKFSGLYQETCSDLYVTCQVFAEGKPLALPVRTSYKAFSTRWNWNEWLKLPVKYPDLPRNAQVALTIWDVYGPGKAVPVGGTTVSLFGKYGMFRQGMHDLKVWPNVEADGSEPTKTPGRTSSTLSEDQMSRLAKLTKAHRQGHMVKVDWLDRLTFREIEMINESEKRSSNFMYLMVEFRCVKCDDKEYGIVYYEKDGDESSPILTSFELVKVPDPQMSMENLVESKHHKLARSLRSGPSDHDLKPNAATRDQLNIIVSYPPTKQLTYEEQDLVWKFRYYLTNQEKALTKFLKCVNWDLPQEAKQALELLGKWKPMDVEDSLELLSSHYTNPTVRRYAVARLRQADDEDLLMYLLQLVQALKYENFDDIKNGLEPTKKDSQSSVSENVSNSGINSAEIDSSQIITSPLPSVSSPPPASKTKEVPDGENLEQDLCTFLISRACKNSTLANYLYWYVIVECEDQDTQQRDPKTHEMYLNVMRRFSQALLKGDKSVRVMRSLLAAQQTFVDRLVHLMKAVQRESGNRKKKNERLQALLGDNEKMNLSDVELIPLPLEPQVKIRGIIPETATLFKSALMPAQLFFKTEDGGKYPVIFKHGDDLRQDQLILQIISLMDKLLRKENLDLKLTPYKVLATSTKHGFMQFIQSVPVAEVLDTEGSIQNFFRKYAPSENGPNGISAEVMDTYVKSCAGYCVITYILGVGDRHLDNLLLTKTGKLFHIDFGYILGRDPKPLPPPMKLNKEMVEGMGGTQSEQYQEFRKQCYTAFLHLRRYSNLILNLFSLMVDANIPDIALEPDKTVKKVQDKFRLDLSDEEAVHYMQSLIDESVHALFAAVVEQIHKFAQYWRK
Sequence of CYP3A4 (P08684 whole entry): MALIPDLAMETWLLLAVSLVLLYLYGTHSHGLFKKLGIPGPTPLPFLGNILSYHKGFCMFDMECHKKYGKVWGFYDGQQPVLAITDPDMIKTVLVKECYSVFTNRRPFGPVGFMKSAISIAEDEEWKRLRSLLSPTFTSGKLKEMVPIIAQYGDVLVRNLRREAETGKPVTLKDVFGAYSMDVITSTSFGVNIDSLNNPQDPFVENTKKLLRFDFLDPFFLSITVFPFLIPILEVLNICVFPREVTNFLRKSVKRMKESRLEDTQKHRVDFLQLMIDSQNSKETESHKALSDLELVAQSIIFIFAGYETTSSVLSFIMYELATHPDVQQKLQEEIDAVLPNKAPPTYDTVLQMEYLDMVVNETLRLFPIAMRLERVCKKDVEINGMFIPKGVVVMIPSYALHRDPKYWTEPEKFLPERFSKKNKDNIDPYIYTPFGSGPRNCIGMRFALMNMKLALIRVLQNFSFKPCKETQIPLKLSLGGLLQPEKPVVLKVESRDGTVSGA

C[C@@H]1COCCN1c1cc(N2CCCC[C@@H]2C(F)(F)F)[nH]c(=O)c1 [SB02024]
IC50 (VPS34 [1]): 5 nM | IC50 (VPS34 [2]): 5.7 nM | solubility in both gastric and small intestinal pH media (in words) [3]: excellent | solubility ([3]; FaSSIF, pH 6.5, fassif, read-out: Solubility FaSSIF, pH 6.5): 890 µM (≈ 307 µg/mL) | solubility ([3]; PBS buffer, pH 7.4, aqueous buffer, read-out: Solubility in PBS buffer, pH 7.4): 175 µM (≈ 60.4 µg/mL) | solubility ([3]; SGF, pH 1.8, simulated gastric fluid, read-out: Solubility SGF, pH 1.8): 2150 µM (≈ 743 µg/mL) | pKa (pKa): 2.2 | logD (Shake flask LogD): 1.8 | Papp A→B [4]: 51 ×10⁻⁶ cm/s | efflux ratio [4]: 0.9 | inhibition of CYP3A (in words) (CYP3A4): weak inhibition | inhibition at 10 µM (CYP3A4; human, 10 μM, 3A4, read-out: Highest CYP inhibition (%) @ 10 μM): 14% | induction of CYP3A4 (in words) (PXR): no induction | fraction unbound [5]: 0.14 | fraction unbound [6]: 0.44 | Vd (In vivo mouse PK): 2.53 L/kg | clearance (In vivo mouse PK): 26 mL/min/kg
